Patent publication US11957759B1, “Rapidly accelerated fibrosarcoma (RAF) degrading compounds and associated methods of use” (Arvinas Operations, Inc., priority 2022, dated 2024)

Legend:
Type in all cases: cell-based
B-RAF G466V [1] = molecular target: T1, B-RAF G466V (Homo sapiens, UniProt P15056, G466V); assay: Target protein degradation, assay B: T-Rex 293 cells, HA-B-RAF_G466V, 96 well format; settings: T-Rex 293 HA-B-RAF_G466V cells, 24 hours, Examples 1-82
T1 construct: expressed in transfected cells; host or cells: T-Rex 293 cells (Invitrogen #R71007)
T1 sequence (P15056 whole entry G466V): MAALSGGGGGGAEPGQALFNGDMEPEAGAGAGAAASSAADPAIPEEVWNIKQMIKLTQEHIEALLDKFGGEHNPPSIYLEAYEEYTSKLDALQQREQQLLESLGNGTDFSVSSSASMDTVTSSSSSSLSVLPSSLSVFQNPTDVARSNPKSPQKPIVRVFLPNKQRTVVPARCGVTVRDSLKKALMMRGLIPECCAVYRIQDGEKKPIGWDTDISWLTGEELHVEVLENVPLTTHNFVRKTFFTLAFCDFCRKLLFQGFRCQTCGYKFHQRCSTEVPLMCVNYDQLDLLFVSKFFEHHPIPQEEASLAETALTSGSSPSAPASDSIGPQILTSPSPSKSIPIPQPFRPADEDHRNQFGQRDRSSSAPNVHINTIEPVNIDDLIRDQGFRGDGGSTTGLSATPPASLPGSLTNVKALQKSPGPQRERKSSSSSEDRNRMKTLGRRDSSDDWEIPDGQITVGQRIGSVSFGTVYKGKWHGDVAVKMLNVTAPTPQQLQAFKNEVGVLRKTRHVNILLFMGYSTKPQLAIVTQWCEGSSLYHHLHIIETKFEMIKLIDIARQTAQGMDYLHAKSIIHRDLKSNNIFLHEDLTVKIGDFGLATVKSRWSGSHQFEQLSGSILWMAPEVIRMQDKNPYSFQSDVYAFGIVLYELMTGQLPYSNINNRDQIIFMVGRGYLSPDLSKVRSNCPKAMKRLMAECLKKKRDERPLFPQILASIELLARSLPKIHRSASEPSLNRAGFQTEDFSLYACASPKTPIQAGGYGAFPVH
Description: B. T-Rex 293 Cells (96 Well Format)
(§1) T-Rex 293 cells were purchased from Invitrogen (#R71007), and stably transfected with a pcDNA4/TO_HA-B-RAF_G466V construct, using 400 ug Zeocin for selection. G466V cells are plated in ulbecco's Modified Eagle Medium (DMEM; Gibco #11965118) containing 10% fetal bovine serum (FBS; Gibco #16000044) and 0.75 ng/mL doxycycline (Selleckchem #4163) at a density of 5,000 cells/well in 50 μl on poly-D-lysine (PDL) coated, black clear bottom 96-well plates (Corning #354640) and incubated for 24 hours at 37° C. with 5% CO2. The following day 50 ul of tested compound was added at 2× concentration in DMEM with a final concentration ranging from 30 nM to 3 pM in 0.1% dimethylsulfoxide (DMSO), and incubated for 24 hours at 37° C. with 5% CO2. At the end of the experimental treatment, the media was flicked off and cells washed once with phosphate-buffered saline (PBS)++(PBS with CaCl and MgCl) and gently replacing with 200 μl PBS++ per well. The PBS++ was removed and 50 uL 4% paraformaldehyde (PFA; EMS #15710) in PBS++ was added, and incubate at room temperature for 15 minutes. Cells were washed once with PBS++ and 50 uL 0.1% Triton X-100 (Fisher #BP151-500) in PBS++ was added. Plate was incubate for 5 minutes at room temperature. Cells were was once with PBS++. Cells were blocked with 100 uL Licor blocking buffer (Licor #927-50000) for 1 hour at room temperature. Next, 50 uL of HA antibody (CST #3724) at 1:1000 in Licor blocking buffer was added, and the plate icubate overnight at 4° C. The plates were parafilmed to prevent evaporation. Plate was washed three times with 200 uL PBS++. Fifty microliters of HCS secondary antibody solution [1:1000 Hoechst (Invitrogen #H3570), 1:1000 phalloidin (Invitrogen #A22287) and 1:5000 Alexa fluor (Invitrogen #A11008)] was added and incubated for 1 hour. Plate was wash three times with 200 uL PBS++, and imaged on a high content reader (ImageXpress Micro XLS, Molecular Devices).
(§2) The concentration of an exemplary compound that leads to half maximal degradation (DC50) as well as the maximum degradation observed (Dmax, conventionally expressed as a percentage of control) is shown below in Table 2.

B-RAF V600E [2] = molecular target: T2, B-RAF V600E (Homo sapiens, UniProt P15056, V600E); assay: Target protein degradation, assay A: T-Rex 293 cells, HA-B-RAF_V600E, 96 well format; settings: T-Rex 293 HA-B-RAF_V600E cells, 24 hours, Examples 1-82
T2 construct: expressed in transfected cells; host or cells: T-Rex 293 cells (Invitrogen #R71007)
T2 sequence (P15056 whole entry V600E): as the sequence (P15056 whole entry G466V) above, with V466G, V600E counted along it
Description: A. T-Rex 293 Cells (96 well format)
as §1, with “pcDNA4/TO_HA-B-RAF_V600E” for “pcDNA4/TO_HA-B-RAF_G466V”, “V600e” for “G466V”, “1” for “0.75”, “1 μM to 0.1” for “30”, “nM” for “nM to 3 pM”
as §2

B-RAF G466V [3] = molecular target: T1, B-RAF G466V; assay: Target protein degradation, assay D: T-Rex 293 cells, HA-BRAF_G466V, 384 well format; settings: T-Rex 293 HA-BRAF_G466V cells, 24 hours, Examples 83-269; for DC50: Assay D; for Dmax: T-REx-293, Assay D
Method in brief: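 Degradation measured by high-content imaging of anti-HA immunofluorescence in fixed T-Rex 293 cells carrying inducible HA-BRAF G466V (1 ng/mL doxycycline), after 24 h PROTAC exposure at 37 °C over 300 nM–5 pM (1:3, 11 points, 0.5% DMSO). Outputs DC50 and Dmax as % of control; nuclei counts against DMSO wells gauge toxicity.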

B-RAF V600E [4] = molecular target: T2, B-RAF V600E; assay: Target protein degradation, assay C: T-Rex 293 cells, HA-BRAF_V600E, 384 well format; settings: T-Rex 293 HA-BRAF_V600E cells, 24 hours, Examples 83-269; for DC50: Assay C; for Dmax: T-REx-293, Assay C
Method in brief: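 After 24 h exposure to an 11-point 1:3 series (300 nM–5 pM, 0.5% DMSO), fixed T-Rex 293 cells carrying HA-BRAF V600E (induced with 1 ng/mL doxycycline) were stained anti-HA and imaged. DC50 and Dmax were derived from BRAF intensity relative to control, and cytotoxicity from nuclear counts.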

Row | SMILES | DC50 (B-RAF G466V [1]) | Dmax (B-RAF G466V [1]) | DC50 (B-RAF V600E [2]) | Dmax (B-RAF V600E [2]) | DC50 (B-RAF G466V [3]) | Dmax (B-RAF G466V [3]) | DC50 (B-RAF V600E [4]) | Dmax (B-RAF V600E [4])
1 | N#Cc1c(NS(=O)(=O)N2CC[C@@H](F)C2)ccc(F)c1Oc1ccc2ncn(-c3ccc(N4CCC(CN5CCC(c6ccc7c(c6)CN([C@H]6CCC(=O)NC6=O)C7=O)CC5)CC4)cc3)c(=O)c2c1 [Example 81, (3R)—N-(2-cyano-3-{[3-(4-{4-[(4-{2-[(3S)-2,6-dioxopiperidin-3-yl]-1-oxo-2,3-dihydro-1H-isoindol-5-yl}piperidin-1-yl)methyl]piperidin-1-yl}phenyl)-4-oxo-3,4-dihydroquinazolin-6-yl]oxy}-4-fluorophenyl)-3-fluoropyrrolidine-1-sulfonamide] | – | – | 0.05 to 0.5 µM | 35 to 70% | – | – | – | –
2 | N#Cc1c(NS(=O)(=O)N2CC[C@H](F)C2)ccc(F)c1Oc1ccc2ncn(-c3ccc(N4CCN(CC5CN(c6ccc7c(c6)CN([C@H]6CCC(=O)NC6=O)C7=O)C5)CC4)cc3)c(=O)c2c1 [Example 195, (3S)-N-(2-cyano-3-{[3-(4-{4-[(1-{2-[(3S)-2,6-dioxopiperidin-3-yl]-1-oxo-2,3-dihydro-1H-isoindol-5-yl}azetidin-3-yl)methyl]piperazin-1-yl}phenyl)-4-oxo-3,4-dihydroquinazolin-6-yl]oxy}-4-fluorophenyl)-3-fluoropyrrolidine-1-sulfonamide] | – | – | – | – | 0.001 to 0.01 µM | ≤ 35% | 0.05 to 0.5 µM | ≤ 35%
3 | N#Cc1c(NS(=O)(=O)N2CC[C@@H](F)C2)ccc(F)c1Oc1ccc2ncn(-c3cnc(C4(N5CCN(CC6CCN(c7ccc(C8CCC(=O)NC8=O)cc7F)CC6)CC5)CC4)nc3)c(=O)c2c1 (stereo partly drawn) [Example 106, (3R)-N-(2-cyano-3-{[3-(2-{1-[4-({1-[4-(2,6-dioxopiperidin-3-yl)-2-fluorophenyl]piperidin-4-yl}methyl)piperazin-1-yl]cyclopropyl}pyrimidin-5-yl)-4-oxo-3,4-dihydroquinazolin-6-yl]oxy}-4-fluorophenyl)-3-fluoropyrrolidine-1-sulfonamide] | – | – | – | – | 0.001 to 0.01 µM | ≤ 35% | 0.05 to 0.5 µM | 35 to 70%
4 | N#Cc1c(NS(=O)(=O)N2CC[C@@H](F)C2)ccc(F)c1Oc1ccc2ncn(-c3ccc(N4CCN(CC5CN(c6cc(F)c7c(c6)CN(C6CCC(=O)NC6=O)C7=O)C5)CC4)cc3)c(=O)c2c1 (stereo partly drawn) [Example 247, (3R)—N-{2-cyano-3-[(3-{4-[4-({1-[2-(2,6-dioxopiperidin-3-yl)-7-fluoro-1-oxo-2,3-dihydro-1H-isoindol-5-yl]azetidin-3-yl}methyl)piperazin-1-yl]phenyl}-4-oxo-3,4-dihydroquinazolin-6-yl)oxy]-4-fluorophenyl}-3-fluoropyrrolidine-1-sulfonamide] | – | – | – | – | 0.001 to 0.01 µM | 35 to 70% | 0.05 to 0.5 µM | ≥ 70%

Now from value to molecule:

Row | DC50 (B-RAF G466V [1]) | Dmax (B-RAF G466V [1]) | DC50 (B-RAF V600E [2]) | Dmax (B-RAF V600E [2]) | DC50 (B-RAF G466V [3]) | Dmax (B-RAF G466V [3]) | DC50 (B-RAF V600E [4]) | Dmax (B-RAF V600E [4]) | SMILES
5 | 0.01 to 0.03 µM | 35 to 70% | > 0.5 µM | – | – | – | – | – | N#Cc1c(NS(=O)(=O)N2CC[C@@H](F)C2)ccc(F)c1Oc1ccc2ncn(-c3ccc(N4CCN(C(=O)CC5(O)CCN(c6ccc7c(c6)CN([C@H]6CCC(=O)NC6=O)C7=O)CC5)CC4)nc3)c(=O)c2c1 [Example 65, (3R)-N-(2-cyano-3-{[3-(6-{4-[2-(1-{2-[(3S)-2,6-dioxopiperidin-3-yl]-1-oxo-2,3-dihydro-1H-isoindol-5-yl}-4-hydroxypiperidin-4-yl)acetyl]piperazin-1-yl}pyridin-3-yl)-4-oxo-3,4-dihydroquinazolin-6-yl]oxy}-4-fluorophenyl)-3-fluoropyrrolidine-1-sulfonamide]
6 | – | – | – | – | 0.01 to 0.03 µM | ≤ 35% | 0.005 to 0.05 µM | ≤ 35% | N#Cc1c(NS(=O)(=O)N2CC[C@@H](F)C2)ccc(F)c1Oc1ccc2ncn(-c3ccc(N4CCC(COCC5CCN(c6ccc7c(c6)C(=O)N(C6CCC(=O)NC6=O)C7=O)CC5)CC4)nc3)c(=O)c2c1 (stereo partly drawn) [Example 144, (3R)-N-(2-cyano-3-{[3-(6-{4-[{{1-[2-(2,6-dioxopiperidin-3-yl)-1,3-dioxo-2,3-dihydro-1H-isoindol-5-yl]piperidin-4-yl}methoxy)methyl]piperidin-1-yl}pyridin-3-yl)-4-oxo-3,4-dihydroquinazolin-6-yl]oxy}-4-fluorophenyl)-3-fluoropyrrolidine-1-sulfonamide]
7 | – | – | – | – | 0.001 to 0.01 µM | – | 0.05 to 0.5 µM | – | N#Cc1c(NS(=O)(=O)N2CC[C@@H](F)C2)ccc(F)c1Oc1ccc2ncn(-c3ccc(N4CCC(CN5CC6(CCC(c7ccc8c(c7)CN(C7CCC(=O)NC7=O)C8=O)CC6)C5)C4)cc3)c(=O)c2c1 (single isomer, unassigned) [Example 261, (3R)-N-(2-cyano-3-{[3-(4-{3-[(7-{2-[(3R*)-2,6-dioxopiperidin-3-yl]-1-oxo-2,3-dihydro-1H-isoindol-5-yl}-2-azaspiro[3.5]nonan-2-yl)methyl]pyrrolidin-1-yl}phenyl)-4-oxo-3,4-dihydroquinazolin-6-yl]oxy}-4-fluorophenyl)-3-fluoropyrrolidine-1-sulfonamide]
8 | – | – | – | – | 0.001 to 0.01 µM | ≥ 70% | 0.05 to 0.5 µM | ≥ 70% | N#Cc1c(NS(=O)(=O)N2CC[C@@H](F)C2)ccc(F)c1Oc1ccc2ncn(-c3ccn(C4CCN(CC5CCN(c6ccc7c(c6)CN([C@H]6CCC(=O)NC6=O)C7=O)CC5)CC4)n3)c(=O)c2c1 [Example 248, (3R)—N-(2-cyano-3-{[3-(1-{1-[(1-{2-[(3S)-2,6-dioxopiperidin-3-yl]-1-oxo-2,3-dihydro-1H-isoindol-5-yl}piperidin-4-yl)methyl]piperidin-4-yl}-1H-pyrazol-3-yl)-4-oxo-3,4-dihydroquinazolin-6-yl]oxy}-4-fluorophenyl)-3-fluoropyrrolidine-1-sulfonamide]
